According to US20080027088A1, “Imidazole-Based Hmg-Coa Reductase Inhibitors” (Warner-Lambert Company, LLC, priority 2004, published 2008):

Experiments:
Type in all cases: in vivo
[1] = tested on: ApoE KO mice fed a Western diet; assay: Plasma and liver sphingomyelin by LC/MS, 4 weeks
Protocol: Animal experiments—Male C57BI/6J and ApoE KO mice on C57BI/6J background were obtained from the Jackson Laboratory (Bar Harbor, Me.) or Taconic (Germantown, N.Y.) (Plaque formation in ApoE KO mice is lipid-driven (A. S. Plump et al., Cell. 1992;71 (2):343-53)). Myriocin was mixed with Western diet containing 0.21% cholesterol and 21% fat. 8-12-week-old mice received 0.3 mg myriocin/kg/day for 12 weeks (Table 1). 10-12 week-old ApoE KO mice (n=8) were pre-fed a western diet for 2 weeks and mice received various concentrations of myriocin for 4 weeks in diet admix. Control groups consisted of ApoE KO mice fed normal chow or Western diet without myriocin, and normal chow-fed C57BI/6J mice. Body weight and chow feeding was measured every week to examine the food consumption. For the femoral artery cuff model, 8-10 week-old male ApoE KO mice were anethetized and the right femoral artery was dissected from its surroundings. […]
Analysis of Sphingolipids and Phospholipids by LC/MS and HPLC—Total lipids were extracted by the modified method of Bligh-Dyer extraction (E. G. Bligh and W. J. Dyer, Can. J. Med. Sci. 1959;37:911-917; and D. K. Perry, A. Bielawska and Y. A. Hannun, Methods Enzymol. 2000;312:22-31). A Micromass (Waters Corp., Milford, Mass.) Quattro Ultima tandem quadrupole mass spectrometer with a standard Z-spray™ ion source, set to electrospray positive ionization mode, with MassLynx™ version 3.5 operating software, was used for all quantitative determinations. […] The following ion transitions were used for quantification: sphingomyelin (704→184 m/z), sphinganine (302→284 m/z), ceramide (566→264 m/z) and psychosine (462→282 m/z) as an internal standard. […]
The liquid chromatography system was composed of twin Shimadzu (Columbia, Md.) LC-10ADvp HPLC pumps with a SCL-10Avp controller (flow rate 0.2 mL/minute), and a LEAP Technologies (Carrboro, N.C.) CTC PAL autosampler. For the quantitative method, the analytical column was a Phenomenex (Torrance, Calif.) Polar-RP (2.0×150 mm, 4 μm) with a MetaChem (Torrance, Calif.) MetaGuard Polaris C8 2.0 mm direct connect (5 μm) guard column. […]

[2] = tested on: ApoE KO mice fed a Western diet; assay: Lipid deposition in en face aorta, Oil Red O staining, 12 weeks
Source text: Vascular pathology—For quantitative analysis of atherosclerotic lesion coverage, sacrificed mice were perfused with saline and the aorta was isolated from the heart to the iliac bifurcation by severing minor branching arteries and dissecting the adventitia. After 24 hrs of fixation with 10% buffered formalin, aorta was opened longitudinally and pinned down on the black wax. Lipids were stained with Oil Red O and photographs were taken. The percentage of aorta stained with Oil Red O was determined by image analysis software, Image Pro Plus.
FIG. 10. Lipid deposition in aortae of Western-diet fed ApoE KO mice. ApoE KO mice were fed with Western diet in the presence or absence of myriocin for 12 weeks. Mice were sacrificed and fixed with 10% buffered formalin for 24 hours. The aorta from heart to the iliac bifurcation was dissected, opened along the ventral surface and pinned down on a black wax background. Accumulated lipids were visualized by Oil Red O staining. Areas of the atherosclerotic lesion were quantified by using Image Pro Plus and represented as percentage of lesion area to total aorta area. The values reported are mean±SEM (n=4, WD vs. WD+myriocin or normal chow, *P<0.01; Normal vs. WD+myriocin, #P<0.01). Bar represents 1 cm.

[3] = tested on: ApoE KO mice fed a Western diet; assay: Lesion development in the cuffed femoral artery, 4 weeks
Protocol: Animal experiments—Male C57BI/6J and ApoE KO mice on C57BI/6J background were obtained from the Jackson Laboratory (Bar Harbor, Me.) or Taconic (Germantown, N.Y.) (Plaque formation in ApoE KO mice is lipid-driven (A. S. Plump et al., Cell. 1992;71 (2):343-53)). Myriocin was mixed with Western diet containing 0.21% cholesterol and 21% fat. 8-12-week-old mice received 0.3 mg myriocin/kg/day for 12 weeks (Table 1). 10-12 week-old ApoE KO mice (n=8) were pre-fed a western diet for 2 weeks and mice received various concentrations of myriocin for 4 weeks in diet admix. Control groups consisted of ApoE KO mice fed normal chow or Western diet without myriocin, and normal chow-fed C57BI/6J mice. Body weight and chow feeding was measured every week to examine the food consumption. For the femoral artery cuff model, 8-10 week-old male ApoE KO mice were anethetized and the right femoral artery was dissected from its surroundings. A nonconstrictive polyethylene cuff (Portex, 0.40-mm inner diameter, 0.80-mm outer diameter, and 1.5-mm length) was placed looselyaround the right femoral artery.
For histological analysis, the mice were perfused and fixed in Zinc-Tris fixative. Paraffin embedded sections were stained with Masson's Trichrome. Intimal macrophages were immunohistochemically stained using MAC-2 antibody (clone M3/38 from Cedarlane Laboratories Limited) counterstained with Verhoeff elastic stain. T-lymphocytes were immunohistochemically stained with rat CD3 antibody (clone CD3-12, Serotec). Lesion thickness and area occupied by macrophages were determined using Image Pro Plus software.
FIG. 5. Lesion Development in the Cuffed Femoral Artery of ApoE KO mice Fed a Western Diet. Mice were anesthetized and the right femoral artery was dissected from its surroundings. […] Atherosclerotic lesion (black bar) and macrophage size (gray bar) in the femoral artery were quantified by using Image Pro Plus software (FIG. 5A). Plasma serum amyloid A levels were determined by colormetric ELISA (FIG. 5B). […]

For `CCCCCCC(=O)CCCCCC/C=C/C[C@@H](O)[C@H](O)[C@@](N)(CO)C(=O)O` [myriocin], the “liver SM levels decreased, maximum” value ([1]; 0.1 mg/kg/day) was 46%, the “liver SM levels” value ([1]; 1 mg/kg/day) was “comparable to the non-treated group” and the “plasma SM levels lowered (LC/MS)” value ([1]; 1 mg/kg/day) was 70%. For the same compound, the “atherosclerotic lesion decreased, en face aorta (Oil Red O)” value ([2]; compared with normal chow-fed ApoE KO mice) was 75%, the “atherosclerotic lesion coverage reduced, en face aorta (Oil Red O)” value ([2]; vs Western diet-fed ApoE KO mice) was 93% and the “reduction of development of atherosclerotic lesions, cuffed femoral artery” value ([3]; 0.1 mg/kg/day) was 43%. The “reduction of macrophage accumulation, cuffed femoral artery” value ([3]; 0.1 mg/kg/day) was 47% and the “lesion area reduced, cuffed femoral artery” value ([3]; 0.3 mg/kg/day, vs no-myriocin control) was “more than 98%”.
